Data reported in US10618918B2, “Substituted boronic acids as antimicrobials” (priority 2015, dated 2020).

Tests used:
KP1005 CTX-M-14 = assay: Tigemonam potentiation (MPC@4), strain KP1005 CTX-M-14; details: minimum BLI concentration inhibiting growth with tigemonam 4 μg/mL; tested up to 40 μg/mL
ECL1002 = assay: Aztreonam potentiation (MPC@4), strain ECL1002; details: minimum BLI concentration inhibiting growth with aztreonam 4 μg/mL; tested up to 40 μg/mL
AB1053 OXA-72 = assay: Meropenem potentiation (MPC@8), strain AB1053 OXA-72; type: cell-based, Acinetobacter baumannii; details: minimum BLI concentration inhibiting growth with meropenem 8 μg/mL; tested up to 20 μg/mL
EC1010 CMY-6 = assay: Aztreonam potentiation (MPC@4), strain EC1010 CMY-6; details: minimum BLI concentration inhibiting growth with aztreonam 4 μg/mL; tested up to 40 μg/mL
ec308 SHV-5 = assay: Aztreonam potentiation (MPC@4), strain ec308 SHV-5; details: minimum BLI concentration inhibiting growth with aztreonam 4 μg/mL; tested up to 40 μg/mL
KP1004 KPC-2 [1] = assay: Biapenem potentiation (MPC@1), strain KP1004 KPC-2; type: cell-based; details: minimum BLI concentration inhibiting growth with biapenem 1 μg/mL; tested up to 40 μg/mL
Description: (§1) Biapenem was present in the test medium at 1 μg/mL. […] Table 3 summarizes the BLI potency of biapenem potentiation (MPC@1) for two strains overexpressing class A (KPC) and class D (OXA-48) carbapenemases. Biapenem MIC for each strain is also shown.

ec302 TEM-10 = assay: Aztreonam potentiation (MPC@4), strain ec302 TEM-10; details: minimum BLI concentration inhibiting growth with aztreonam 4 μg/mL; tested up to 40 μg/mL
AB1054 OXA-23 = assay: Meropenem potentiation (MPC@8), strain AB1054 OXA-23; type: cell-based, Acinetobacter baumannii; details: minimum BLI concentration inhibiting growth with meropenem 8 μg/mL; tested up to 20 μg/mL
KP1010 SHV-12 = assay: Aztreonam potentiation (MPC@4), strain KP1010 SHV-12; details: minimum BLI concentration inhibiting growth with aztreonam 4 μg/mL; tested up to 40 μg/mL
[2] = target: T1, purified class A, C and D enzymes (β-lactamases) (Pseudomonas aeruginosa, UniProt P24735); assay: biochemical; type: biochemical
T1 construct: rows headed: Ki (Pa-AmpC, NCF), uM; other: purified Pa-AmpC; nitrocefin (NCF) as reporter substrate
T1 sequence (P24735 whole entry): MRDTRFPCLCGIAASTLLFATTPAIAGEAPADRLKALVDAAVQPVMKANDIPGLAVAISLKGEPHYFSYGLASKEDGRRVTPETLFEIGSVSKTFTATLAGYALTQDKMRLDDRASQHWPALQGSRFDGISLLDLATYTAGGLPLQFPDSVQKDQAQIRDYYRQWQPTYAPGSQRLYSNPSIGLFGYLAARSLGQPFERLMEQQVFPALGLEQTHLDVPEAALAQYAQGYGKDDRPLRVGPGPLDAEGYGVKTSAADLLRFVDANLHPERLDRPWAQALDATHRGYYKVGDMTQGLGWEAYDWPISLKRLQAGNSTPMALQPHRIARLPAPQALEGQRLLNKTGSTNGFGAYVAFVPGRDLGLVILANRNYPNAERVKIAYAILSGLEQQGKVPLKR

[3] = target: T2, purified class A, C and D enzymes (β-lactamases) (Acinetobacter baumannii, UniProt Q9L4P2); assay: biochemical; type: biochemical; details: purified OXA-23; nitrocefin (NCF) as reporter substrate
T2 construct: rows headed: Ki (OXA-23, NCF), uM; other: purified OXA-23; nitrocefin (NCF) as reporter substrate
T2 sequence (Q9L4P2 whole entry): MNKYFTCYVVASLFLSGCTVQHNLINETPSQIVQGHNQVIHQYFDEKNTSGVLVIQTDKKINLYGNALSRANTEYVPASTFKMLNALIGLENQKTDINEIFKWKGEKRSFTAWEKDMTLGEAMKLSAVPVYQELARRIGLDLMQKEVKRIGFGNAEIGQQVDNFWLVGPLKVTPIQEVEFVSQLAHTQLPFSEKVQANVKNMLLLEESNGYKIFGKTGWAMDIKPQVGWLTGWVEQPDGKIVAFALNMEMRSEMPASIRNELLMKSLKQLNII

[4] = target: purified class A, C and D enzymes (β-lactamases) (Klebsiella pneumoniae, UniProt Q6XEC0); assay: biochemical; type: biochemical; details: purified OXA-48; nitrocefin (NCF) as reporter substrate
[5] = target: purified class A, C and D enzymes (β-lactamases) (Escherichia coli, UniProt Q9L5C7); assay: biochemical; type: biochemical; details: purified CTX-M-14; nitrocefin (NCF) as reporter substrate
purified class A, C and D enzymes (β-lactamases) (Escherichia coli, UniProt Q9L5C7), sequence (Q9L5C7 entry or part of it): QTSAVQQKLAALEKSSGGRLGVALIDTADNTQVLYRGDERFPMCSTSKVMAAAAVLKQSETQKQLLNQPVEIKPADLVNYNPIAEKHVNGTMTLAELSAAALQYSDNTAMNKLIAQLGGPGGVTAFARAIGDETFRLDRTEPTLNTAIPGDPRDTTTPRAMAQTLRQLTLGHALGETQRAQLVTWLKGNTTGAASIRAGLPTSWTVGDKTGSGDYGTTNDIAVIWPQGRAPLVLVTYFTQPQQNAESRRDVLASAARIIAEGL

[6] = target: purified class A, C and D enzymes (β-lactamases) (Klebsiella pneumoniae, UniProt Q9F663); assay: biochemical; type: biochemical; details: purified KPC-2; nitrocefin (NCF) as reporter substrate
[7] = target: purified class A, C and D enzymes (β-lactamases) (Enterobacter cloacae, UniProt P05364); assay: biochemical; type: biochemical
purified class A, C and D enzymes (β-lactamases) (Enterobacter cloacae, UniProt P05364), sequence (P05364 21-381): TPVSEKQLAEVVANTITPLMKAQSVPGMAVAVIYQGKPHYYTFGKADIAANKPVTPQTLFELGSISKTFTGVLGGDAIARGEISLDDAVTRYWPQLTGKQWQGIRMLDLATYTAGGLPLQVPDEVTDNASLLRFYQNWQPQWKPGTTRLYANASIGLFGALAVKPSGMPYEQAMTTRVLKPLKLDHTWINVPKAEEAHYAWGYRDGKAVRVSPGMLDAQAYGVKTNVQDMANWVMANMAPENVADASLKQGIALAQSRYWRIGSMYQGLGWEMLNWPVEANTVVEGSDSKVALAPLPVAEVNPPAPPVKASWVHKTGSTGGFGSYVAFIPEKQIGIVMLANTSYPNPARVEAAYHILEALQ

KP1004 KPC-2 [8] = assay: Aztreonam potentiation (MPC@4), strain KP1004 KPC-2; details: minimum BLI concentration inhibiting growth with aztreonam 4 μg/mL; tested up to 40 μg/mL
KP1086 OXA-48 = assay: Biapenem potentiation (MPC@1), strain KP1086 OXA-48; type: cell-based; details: minimum BLI concentration inhibiting growth with biapenem 1 μg/mL; tested up to 40 μg/mL
Description: as §1

KP1009 CTX-M-15 = assay: Aztreonam potentiation (MPC@4), strain KP1009 CTX-M-15; details: minimum BLI concentration inhibiting growth with aztreonam 4 μg/mL; tested up to 40 μg/mL

| Structure (SMILES) | TIG MPC4 CTX-M-14 KP1005 (KP1005 CTX-M-14) | AZT MPC4 ECL1002 (ECL1002) | MPM MPC8 AB1053 OXA-72 (AB1053 OXA-72) | AZT MPC4 CMY-6 EC1010 (EC1010 CMY-6) | AZT MPC4 SHV-5 ec308 (ec308 SHV-5) | BPM MPC1 KP1004 KPC-2 (KP1004 KPC-2 [1]) | AZT MPC4 TEM-10 ec302 (ec302 TEM-10) | MPM MPC8 AB1054 OXA-23 (AB1054 OXA-23) | AZT MPC4 SHV-12 KP1010 (KP1010 SHV-12) | Ki [2] | Ki [3] | Ki (OXA-48, NCF), uM [4] | Ki (CTX-M-14, NCF), uM [5] | Ki (KPC-2, NCF), uM [6] | Ki (P99, NCF), uM [7] | AZT MPC4 KPC-2 KP1004 (KP1004 KPC-2 [8]) | BPM MPC1 OXA-48 KP1086 (KP1086 OXA-48) | AZT MPC4 CTX-M-15 KP1009 (KP1009 CTX-M-15) |
| --- | --- | --- | --- | --- | --- | --- | --- | --- | --- | --- | --- | --- | --- | --- | --- | --- | --- | --- |
| O=C([O-])c1ccc2c(c1C(=O)[O-])O[B-](O)(O)CC2.[Na+].[Na+].[Na+] [Compound 53, Trisodium; 4,4-dihydroxy-5-oxa-4-boranuidabicyclo[4.4.0]deca-1(6),7,9-triene-7,8-dicarboxylate] | Z (Z = MPC@4 > 20 μg/mL) | X (X = MPC@4 ≤ 5 μg/mL) | X (X = MPC@1 ≤ 5 μg/mL) | X (X = MPC@4 ≤ 5 μg/mL) | Y (Y = 5 μg/mL < MPC@4 ≤ 20 μg/mL) | X (X = MPC@1 ≤ 5 μg/mL) | Y (Y = 5 μg/mL < MPC@4 ≤ 20 μg/mL) | X (X = MPC@1 ≤ 5 μg/mL) | X (X = MPC@4 ≤ 5 μg/mL) | < 100 nM | < 100 nM | X (X = Ki ≤ 0.1 μM) | X (X = Ki ≤ 0.1 μM) | X (X = Ki ≤ 0.1 μM) | X (key: X = Ki ≤ 0.1 μM; Y = 0.1 μM < Ki ≤ 1 μM; Z = Ki > 1 μM) | X (X = MPC@4 ≤ 5 μg/mL) | X (X = MPC@1 ≤ 5 μg/mL) | Y (Y = 5 μg/mL < MPC@4 ≤ 20 μg/mL) |
| COc1ccc2c(c1C(=O)[O-])O[B-](O)(O)[C@@H](C)C2.[Na+].[Na+] [Compound 11, Disodium; (3S)-4,4-dihydroxy-8-methoxy-3-methyl-5-oxa-4-boranuidabicyclo[4.4.0]deca-1(6),7,9-triene-7-carboxylate] | Z (Z = MPC@4 > 20 μg/mL) | Y (Y = 5 μg/mL < MPC@4 ≤ 20 μg/mL) | X (X = MPC@1 ≤ 5 μg/mL) | X (X = MPC@4 ≤ 5 μg/mL) | Y (Y = 5 μg/mL < MPC@4 ≤ 20 μg/mL) | X (X = MPC@1 ≤ 5 μg/mL) | Y (Y = 5 μg/mL < MPC@4 ≤ 20 μg/mL) | Y (Y = 5 μg/mL < MPC@1 ≤ 20 μg/mL) | Y (Y = 5 μg/mL < MPC@4 ≤ 20 μg/mL) | < 100 nM | < 100 nM | X (X = Ki ≤ 0.1 μM) | X (X = Ki ≤ 0.1 μM) | X (X = Ki ≤ 0.1 μM) | X (key: X = Ki ≤ 0.1 μM; Y = 0.1 μM < Ki ≤ 1 μM; Z = Ki > 1 μM) | Y (Y = 5 μg/mL < MPC@4 ≤ 20 μg/mL) | Y (Y = 5 μg/mL < MPC@1 ≤ 20 μg/mL) | Y (Y = 5 μg/mL < MPC@4 ≤ 20 μg/mL) |
| O=C([O-])c1c(OCc2ccncc2)ccc2c1O[B-](O)(O)CC2.[Na+].[Na+] [Compound 28, Disodium; 4,4-dihydroxy-8-(4-pyridylmethoxy)-5-oxa-4-boranuidabicyclo[4.4.0]deca-1(6),7,9-triene-7-carboxylate] | Z (Z = MPC@4 > 20 μg/mL) | Y (Y = 5 μg/mL < MPC@4 ≤ 20 μg/mL) | X (X = MPC@1 ≤ 5 μg/mL) | X (X = MPC@4 ≤ 5 μg/mL) | Y (Y = 5 μg/mL < MPC@4 ≤ 20 μg/mL) | X (X = MPC@1 ≤ 5 μg/mL) | X (X = MPC@4 ≤ 5 μg/mL) | X (X = MPC@1 ≤ 5 μg/mL) | X (X = MPC@4 ≤ 5 μg/mL) | < 100 nM | < 100 nM | X (X = Ki ≤ 0.1 μM) | X (X = Ki ≤ 0.1 μM) | X (X = Ki ≤ 0.1 μM) | X (key: X = Ki ≤ 0.1 μM; Y = 0.1 μM < Ki ≤ 1 μM; Z = Ki > 1 μM) | X (X = MPC@4 ≤ 5 μg/mL) | X (X = MPC@1 ≤ 5 μg/mL) | Y (Y = 5 μg/mL < MPC@4 ≤ 20 μg/mL) |
| O=C([O-])c1c(CSc2nncs2)ccc2c1O[B-](O)(O)CC2.[Na+].[Na+] [Compound 20, Disodium; 4,4-dihydroxy-8-(1,3,4-thiadiazol-2-ylsulfanylmethyl)-5-oxa-4-boranuidabicyclo[4.4.0]deca-1(6),7,9-triene-7-carboxylate] | Y (Y = 5 μg/mL < MPC@4 ≤ 20 μg/mL) | X (X = MPC@4 ≤ 5 μg/mL) | Y (Y = 5 μg/mL < MPC@1 ≤ 20 μg/mL) | X (X = MPC@4 ≤ 5 μg/mL) | X (X = MPC@4 ≤ 5 μg/mL) | X (X = MPC@1 ≤ 5 μg/mL) | X (X = MPC@4 ≤ 5 μg/mL) | Y (Y = 5 μg/mL < MPC@1 ≤ 20 μg/mL) | X (X = MPC@4 ≤ 5 μg/mL) | < 100 nM | < 100 nM | X (X = Ki ≤ 0.1 μM) | X (X = Ki ≤ 0.1 μM) | X (X = Ki ≤ 0.1 μM) | X (key: X = Ki ≤ 0.1 μM; Y = 0.1 μM < Ki ≤ 1 μM; Z = Ki > 1 μM) | X (X = MPC@4 ≤ 5 μg/mL) | X (X = MPC@1 ≤ 5 μg/mL) | X (X = MPC@4 ≤ 5 μg/mL) |
| O=C([O-])c1c(OCC2CC2)ccc2c1O[B-](O)(O)CC2.[Na+].[Na+] [Compound 45, Disodium; 8-(cyclopropylmethoxy)-4,4-dihydroxy-5-oxa-4-boranuidabicyclo[4.4.0]deca-1(6),7,9-triene-7-carboxylate] | Z (Z = MPC@4 > 20 μg/mL) | Y (Y = 5 μg/mL < MPC@4 ≤ 20 μg/mL) | X (X = MPC@1 ≤ 5 μg/mL) | X (X = MPC@4 ≤ 5 μg/mL) | Y (Y = 5 μg/mL < MPC@4 ≤ 20 μg/mL) | X (X = MPC@1 ≤ 5 μg/mL) | Y (Y = 5 μg/mL < MPC@4 ≤ 20 μg/mL) | X (X = MPC@1 ≤ 5 μg/mL) | X (X = MPC@4 ≤ 5 μg/mL) | < 100 nM | < 100 nM | X (X = Ki ≤ 0.1 μM) | X (X = Ki ≤ 0.1 μM) | X (X = Ki ≤ 0.1 μM) | X (key: X = Ki ≤ 0.1 μM; Y = 0.1 μM < Ki ≤ 1 μM; Z = Ki > 1 μM) | X (X = MPC@4 ≤ 5 μg/mL) | X (X = MPC@1 ≤ 5 μg/mL) | Z (Z = MPC@4 > 20 μg/mL) |
| NCCc1cn(-c2ccc3c(c2C(=O)O)O[B-](O)(O)CC3)nn1 [Compound 14, Disodium; 8-[4-(2-aminoethyl)triazol-1-yl]-4,4-dihydroxy-5-oxa-4-boranuidabicyclo[4.4.0]deca-1(6),7,9-triene-7-carboxylate] | Z (Z = MPC@4 > 20 μg/mL) | Z (Z = MPC@4 > 20 μg/mL) | X (X = MPC@1 ≤ 5 μg/mL) | Y (Y = 5 μg/mL < MPC@4 ≤ 20 μg/mL) | Y (Y = 5 μg/mL < MPC@4 ≤ 20 μg/mL) | X (X = MPC@1 ≤ 5 μg/mL) | Y (Y = 5 μg/mL < MPC@4 ≤ 20 μg/mL) | X (X = MPC@1 ≤ 5 μg/mL) | X (X = MPC@4 ≤ 5 μg/mL) | > 1000 nM | < 100 nM | X (X = Ki ≤ 0.1 μM) | X (X = Ki ≤ 0.1 μM) | X (X = Ki ≤ 0.1 μM) | Y (key: X = Ki ≤ 0.1 μM; Y = 0.1 μM < Ki ≤ 1 μM; Z = Ki > 1 μM) | X (X = MPC@4 ≤ 5 μg/mL) | X (X = MPC@1 ≤ 5 μg/mL) | Y (Y = 5 μg/mL < MPC@4 ≤ 20 μg/mL) |
